# pIC50: −log10 of the molar value. Where two headings read alike, the source gives them in different places.
# Key:
# [1] = target: T1, DHS2^WT (Arabidopsis thaliana, UniProt Q00218); test: DHS enzyme assay, recombinant DHS2^WT; type: biochemical; details: for effect on DHS2 activity (effector screening): FIG. 2D; for inhibition at 1000 µM: effector at 1 mM
# T1 construct: without the predicted plastid transit peptide (amino acid residues; 49-525, 34-507, and 52-527, respectively); made in house; host or cells: E. coli Rosetta-2
# T1 sequence (Q00218 34-507): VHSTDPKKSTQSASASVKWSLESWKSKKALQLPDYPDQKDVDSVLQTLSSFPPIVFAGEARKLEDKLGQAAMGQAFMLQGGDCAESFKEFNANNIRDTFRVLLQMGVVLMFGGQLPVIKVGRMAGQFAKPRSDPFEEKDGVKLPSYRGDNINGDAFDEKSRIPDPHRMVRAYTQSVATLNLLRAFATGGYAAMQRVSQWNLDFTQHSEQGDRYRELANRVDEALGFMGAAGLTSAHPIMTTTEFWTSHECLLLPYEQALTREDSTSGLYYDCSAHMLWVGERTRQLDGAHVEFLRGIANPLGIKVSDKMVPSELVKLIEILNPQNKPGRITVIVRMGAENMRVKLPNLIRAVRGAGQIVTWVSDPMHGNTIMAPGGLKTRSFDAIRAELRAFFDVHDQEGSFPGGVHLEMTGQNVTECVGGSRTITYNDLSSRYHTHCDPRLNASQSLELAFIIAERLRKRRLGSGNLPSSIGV
# Experimental: (§1) To generate recombinant DHS proteins the pET28a vectors carrying the A. thaliana DHS1 (AtDHS1), AtDHS2, or AtDHS3 WT sequence without the predicted plastid transit peptide (amino acid residues; 49-525, 34-507, and 52-527, respectively) were expressed in E. coli Rosetta-2 cells and purified using Ni-affinity chromatography, exactly as was conducted previously (9). To generate DHS proteins with individual sota mutations via site-directed mutagenesis, these pET28a plasmid templates were diluted by 500-fold, mixed with 0.04 U/μL Phusion DNA polymerase (Thermo Scientific), 0.2 mM deoxynucleoside triphosphates (dNTPs), 1× Phusion reaction buffer (Thermo Scientific), and 0.5 μM forward and reverse mutagenesis primers (Table 10). The PCR reaction was run using the following protocol: 98° C. for 30 s followed by 20 cycles of 10 s at 98° C., 20 s at 70° C., 4.5 min at 72° C. with a final extension at 72° C. for 10 min. The PCR products were purified using a QIAquick Gel Extraction Kit (QIAGEN), treated with FastDigest DpnI (Thermo Scientific) to digest methylated plasmid template DNA for 20 min at 37° C., and transformed into E. coli cells. The mutagenized pET28a plasmids were sequenced to confirm that no errors were introduced during the mutagenesis process.
# (§2) The DHS enzyme assays were conducted using the colorimetric method that we recently described (9). Briefly, the enzyme solution (7.7 μl) containing 50 mM Hepes (pH 7.4) was preincubated with an effector molecule(s) at room temperature for 15 min. For assays using recombinant protein and enzyme fractions isolated from plant leaves, 0.01 to 0.1 μg and approximately 50 μg of proteins were used, respectively. After adding 0.5 μl of 0.1 M dithiothreitol, the samples were further incubated at room temperature for 15 min. During these incubations, the substrate solution containing 50 mM Hepes (pH 7.4), 2 mM MnCl2, 4 mM E4P, and 4 mM PEP at final concentration was preheated at 37° C. The enzyme reaction was started by adding 6.8 μl of the substrate solution, then incubated at 37° C. for 30 min, and terminated by adding 30 μl of 0.6 M trichloroacetic acid. After a brief centrifugation, 5 μl of 200 mM NaIO4 (sodium meta-periodate) in 9 N H3PO4 was added to oxidize the enzymatic product and to incubate at 25° C. for 20 min. To stop the oxidation reaction, 20 μl of 0.75 M NaAsO2 (sodium arsenite), which was dissolved in 0.5 M Na2SO4 and 0.05 M H2SO4, was added and immediately mixed. After 5 min of incubation at room temperature, one-third of the sample solution was transferred to a new tube to be mixed with 50 μl of 40 mM thiobarbituric acid and incubated at 99° C. for 15 min in a thermal cycler. The mixture was added to 600 μl of cyclohexanone in eight-strip solvent-resistant plastic tubes, mixed vigorously, and centrifuged at 4500 g for 3 min to separate water- and cyclohexanone-based layers for the extraction off the developed pink chromophore. The absorbance of the pink supernatant was read at 549 nm with the microplate reader (Infinite 200 PRO, TECAN) to calculate DAHP production with the molar extinction coefficient at 549 nm (ε=549 nm) of 4.5×10^4 M^−1 cm^−1. Reaction mixtures with boiled enzymes were run in parallel and used as negative controls to estimate the background signal.
# [2] = target: T2, DHS1^WT (Arabidopsis thaliana, UniProt P29976); test: DHS enzyme assay (colorimetric), recombinant DHS1^WT; type: biochemical; details: for effect on DHS1 activity (effector screening): FIG. 2D
# T2 construct: without the predicted plastid transit peptide (amino acid residues; 49-525, 34-507, and 52-527, respectively); made in house; host or cells: E. coli Rosetta-2
# T2 sequence (P29976 49-525): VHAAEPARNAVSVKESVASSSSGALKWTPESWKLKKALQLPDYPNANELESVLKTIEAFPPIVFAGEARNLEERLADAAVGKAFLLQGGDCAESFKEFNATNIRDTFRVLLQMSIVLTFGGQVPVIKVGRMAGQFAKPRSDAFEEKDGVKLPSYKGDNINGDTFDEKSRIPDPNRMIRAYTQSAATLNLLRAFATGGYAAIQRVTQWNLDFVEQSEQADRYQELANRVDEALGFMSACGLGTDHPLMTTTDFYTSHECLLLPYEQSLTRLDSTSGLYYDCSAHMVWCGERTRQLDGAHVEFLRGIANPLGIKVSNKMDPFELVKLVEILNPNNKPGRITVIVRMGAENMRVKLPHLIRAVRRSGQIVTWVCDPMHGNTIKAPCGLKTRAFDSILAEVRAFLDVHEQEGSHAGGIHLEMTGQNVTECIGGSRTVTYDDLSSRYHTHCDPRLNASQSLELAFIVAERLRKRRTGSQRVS
# Experimental: as §1, §2
# [3] = target: T3, Arabidopsis thaliana DHS1 (SEQ ID NO:1) variant DHS1^B4 (sotaB4), G244R (Arabidopsis thaliana, UniProt P29976, G244R); test: DHS enzyme assay with effector, DHS1 sotaB4; type: biochemical
# T3 construct: without the predicted plastid transit peptide (amino acid residues; 49-525, 34-507, and 52-527, respectively); made in house; host or cells: E. coli
# T3 sequence (P29976 49-525 G244R): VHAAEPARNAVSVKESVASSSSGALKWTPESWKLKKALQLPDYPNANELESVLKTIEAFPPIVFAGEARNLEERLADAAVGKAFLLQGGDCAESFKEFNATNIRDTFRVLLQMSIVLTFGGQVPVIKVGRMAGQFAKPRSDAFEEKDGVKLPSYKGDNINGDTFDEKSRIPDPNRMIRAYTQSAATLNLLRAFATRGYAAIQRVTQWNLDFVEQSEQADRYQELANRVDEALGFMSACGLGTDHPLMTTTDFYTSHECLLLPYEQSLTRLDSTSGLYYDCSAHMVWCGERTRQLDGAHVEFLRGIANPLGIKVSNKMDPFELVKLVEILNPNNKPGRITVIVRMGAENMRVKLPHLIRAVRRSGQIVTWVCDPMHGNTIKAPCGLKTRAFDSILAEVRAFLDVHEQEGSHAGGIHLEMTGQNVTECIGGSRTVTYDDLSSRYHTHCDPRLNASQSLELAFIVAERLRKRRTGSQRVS
# Experimental: as §1, §2
# [4] = target: T4, DHS1^B4 (Arabidopsis thaliana, UniProt P29976, G244R); test: DHS enzyme assay, recombinant DHS1^B4; type: biochemical
# T4 construct: without the predicted plastid transit peptide (amino acid residues; 49-525, 34-507, and 52-527, respectively); made in house; host or cells: E. coli
# T4 sequence (P29976 49-525 G244R): as above
# Experimental: as §1, §2
# [5] = target: T2, DHS1^WT; details: AAAs, chorismate, caffeate: from Yokoyama et al., Plant Cell, 2021, cited from earlier work
# [6] = target: T5, DHS2^A4 (Arabidopsis thaliana, UniProt Q00218, G222S); test: Differential scanning fluorimetry (DSF) protein-ligand affinity analysis, DHS2^A4; type: binding; details: ligand at 1 mM
# T5 construct: without the predicted plastid transit peptide (amino acid residues; 49-525, 34-507, and 52-527, respectively); made in house; host or cells: E. coli
# T5 sequence (Q00218 34-507 G222S): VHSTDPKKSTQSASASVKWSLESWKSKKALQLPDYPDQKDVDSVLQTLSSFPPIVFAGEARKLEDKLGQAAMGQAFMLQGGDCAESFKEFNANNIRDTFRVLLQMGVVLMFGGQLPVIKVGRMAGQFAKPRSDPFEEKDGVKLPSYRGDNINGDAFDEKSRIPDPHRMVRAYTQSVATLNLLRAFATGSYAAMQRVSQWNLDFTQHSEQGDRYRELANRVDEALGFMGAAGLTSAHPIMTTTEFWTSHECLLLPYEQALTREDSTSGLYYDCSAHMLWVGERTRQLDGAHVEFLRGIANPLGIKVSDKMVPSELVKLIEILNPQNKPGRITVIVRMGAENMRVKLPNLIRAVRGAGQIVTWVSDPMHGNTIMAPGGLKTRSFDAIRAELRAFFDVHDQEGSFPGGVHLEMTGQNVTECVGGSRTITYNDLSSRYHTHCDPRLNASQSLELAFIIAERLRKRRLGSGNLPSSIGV
# Experimental: (§3) To examine the impact of the sota mutations on the interaction between DHS and AAA effectors (FIG. 22), a differential scanning fluorimetry (DSF) analysis (48) was conducted using the recombinant DHS2^WT and DHS2^A4 proteins. […] The fluorescence signal was monitored during the stepwise increase in temperature (1° C. per minute from 25° C. to 95° C.). The Tm was calculated by nonlinear regression analysis using the Boltzmann sigmoidal equation (48).
# [7] = target: T1, DHS2^WT; test: Differential scanning fluorimetry (DSF) protein-ligand affinity analysis, DHS2^WT; type: binding; details: ligand at 1 mM
# Experimental: as §3
# [8] = target: T6, Arabidopsis thaliana DHS2 (SEQ ID NO:2) variant DHS2^A4 (sotaA4), G222S (Arabidopsis thaliana, UniProt Q00218, G222S); test: Differential scanning fluorimetry protein-ligand affinity analysis, DHS2 sotaA4; type: binding; details: ligand at 1 mM
# T6 construct: without the predicted plastid transit peptide (amino acid residues; 49-525, 34-507, and 52-527, respectively); made in house; host or cells: E. coli
# T6 sequence (Q00218 34-507 G222S): as above
# Experimental: (A) Simplified pathway map of AAAs and AAA-derived metabolites used in the effector screening. […] Data are means±SEM (n=3 independent assays).
# as §3
# [9] = target: T7, Arabidopsis thaliana DHS2 (AtDHS2), wild type (DHS2^WT), SEQ ID NO:2 (Arabidopsis thaliana, UniProt Q00218); details: reference 9; cited from earlier work
# T7 construct: without the predicted plastid transit peptide (amino acid residues; 49-525, 34-507, and 52-527, respectively); made in house; host or cells: E. coli Rosetta-2
# T7 sequence (Q00218 34-507): as the sequence (Q00218 34-507) above
# [10] = test system: DHS3^WT; details: AAAs: from Yokoyama et al., Plant Cell, 2021; cited from earlier work
# [11] = target: DHS3^H1; test: DHS enzyme assay, recombinant DHS3^H1; type: biochemical, Arabidopsis thaliana
# Experimental: as §1, with “To” for “To generate recombinant DHS proteins the pET28a vectors carrying the A. thaliana DHS1 (AtDHS1), AtDHS2, or AtDHS3 WT sequence without the predicted plastid transit peptide (amino acid residues; 49-525, 34-507, and 52-527, respectively) were expressed in E. coli Rosetta-2 cells and purified using Ni-affinity chromatography, exactly as was conducted previously (9). To”
# (§4) The DHS enzyme assays were conducted using the colorimetric method that we recently described (9). Briefly, the enzyme solution (7.7 μl) containing 50 mM Hepes (pH 7.4) was preincubated with an effector molecule(s) at room temperature for 15 min. For assays using recombinant protein and enzyme fractions isolated from plant leaves, 0.01 to 0.1 μg and approximately 50 μg of proteins were used, respectively. After adding 0.5 μl of 0.1 M dithiothreitol, the samples were further incubated at room temperature for 15 min. During these incubations, the substrate solution containing 50 mM Hepes (pH 7.4), 2 mM MnCl2, 4 mM E4P, and 4 mM PEP at final concentration was preheated at 37° C. The enzyme reaction was started by adding 6.8 μl of the substrate solution, then incubated at 37° C. for 30 min, and terminated by adding 30 μl of 0.6 M trichloroacetic acid. After a brief centrifugation, 5 μl of 200 mM NaIO4 (sodium meta-periodate) in 9 N H3PO4 was added to oxidize the enzymatic product and to incubate at 25° C. for 20 min. To stop the oxidation reaction, 20 μl of 0.75 M NaAsO2 (sodium arsenite), which was dissolved in 0.5 M Na2SO4 and 0.05 M H2SO4, was added and immediately mixed. […]
# [12] = target: T8, DHS2^F1 (Arabidopsis thaliana, UniProt Q00218, L136F); test: DHS enzyme assay, recombinant DHS2^F1; type: biochemical; details: effector up to 1 mM
# T8 construct: without the predicted plastid transit peptide (amino acid residues; 49-525, 34-507, and 52-527, respectively); made in house; host or cells: E. coli
# T8 sequence (Q00218 34-507 L136F): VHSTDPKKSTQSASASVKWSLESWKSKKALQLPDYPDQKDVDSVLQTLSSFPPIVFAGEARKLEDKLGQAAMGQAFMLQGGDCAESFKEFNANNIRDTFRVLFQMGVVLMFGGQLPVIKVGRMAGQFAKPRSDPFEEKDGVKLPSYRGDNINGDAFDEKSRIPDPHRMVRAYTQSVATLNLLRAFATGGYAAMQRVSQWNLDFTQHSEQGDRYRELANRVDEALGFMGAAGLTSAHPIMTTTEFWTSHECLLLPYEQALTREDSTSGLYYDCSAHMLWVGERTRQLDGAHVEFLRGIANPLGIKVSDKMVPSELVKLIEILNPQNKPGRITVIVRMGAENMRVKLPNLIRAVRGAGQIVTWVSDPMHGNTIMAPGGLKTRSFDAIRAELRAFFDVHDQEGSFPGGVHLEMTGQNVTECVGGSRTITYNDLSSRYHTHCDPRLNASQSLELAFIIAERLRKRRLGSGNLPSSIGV
# Experimental: as §1, §2
# [13] = target: DHS3^G1; test: DHS enzyme assay, recombinant DHS3^G1; type: biochemical, Arabidopsis thaliana
# Experimental: as §1, with “To” for “To generate recombinant DHS proteins the pET28a vectors carrying the A. thaliana DHS1 (AtDHS1), AtDHS2, or AtDHS3 WT sequence without the predicted plastid transit peptide (amino acid residues; 49-525, 34-507, and 52-527, respectively) were expressed in E. coli Rosetta-2 cells and purified using Ni-affinity chromatography, exactly as was conducted previously (9). To”
# as §4
# [14] = target: T9, DHS2^A11 (Arabidopsis thaliana, UniProt Q00218, A224T); test: DHS enzyme assay, recombinant DHS2^A11; type: biochemical; details: effector up to 1 mM
# T9 construct: without the predicted plastid transit peptide (amino acid residues; 49-525, 34-507, and 52-527, respectively); made in house; host or cells: E. coli
# T9 sequence (Q00218 34-507 A224T): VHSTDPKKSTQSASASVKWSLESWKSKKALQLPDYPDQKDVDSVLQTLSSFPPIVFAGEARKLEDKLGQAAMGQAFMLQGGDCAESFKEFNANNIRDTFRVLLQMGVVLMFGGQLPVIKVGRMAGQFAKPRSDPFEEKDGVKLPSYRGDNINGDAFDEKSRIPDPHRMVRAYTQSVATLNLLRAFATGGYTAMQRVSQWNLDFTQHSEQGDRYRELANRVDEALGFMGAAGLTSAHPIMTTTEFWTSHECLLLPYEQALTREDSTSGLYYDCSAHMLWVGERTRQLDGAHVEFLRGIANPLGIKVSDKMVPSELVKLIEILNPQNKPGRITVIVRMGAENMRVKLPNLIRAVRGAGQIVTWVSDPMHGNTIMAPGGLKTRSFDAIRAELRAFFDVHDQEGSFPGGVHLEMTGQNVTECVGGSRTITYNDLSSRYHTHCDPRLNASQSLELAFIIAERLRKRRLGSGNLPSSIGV
# Experimental: as §1, §2
# [15] = target: T6, Arabidopsis thaliana DHS2 (SEQ ID NO:2) variant DHS2^A4 (sotaA4), G222S; test: biochemical; type: biochemical; details: up to 1 mM Tyr, Trp (FIG. 2C); shikimate, arogenate, prephenate at 1 mM (FIG. 21A)
# Experimental: as §1, §2
# [16] = target: T5, DHS2^A4; type: biochemical; details: effector up to 1 mM
# Experimental: as §1, §2
# [17] = target: T10, Arabidopsis thaliana DHS1 (AtDHS1), wild type (DHS1^WT), SEQ ID NO:1 (Arabidopsis thaliana, UniProt P29976); test: DHS enzyme assay with effector, Arabidopsis DHS1 WT; type: biochemical; details: effector screening (FIG. 2D)
# T10 construct: without the predicted plastid transit peptide (amino acid residues; 49-525, 34-507, and 52-527, respectively); made in house; host or cells: E. coli Rosetta-2
# T10 sequence (P29976 49-525): as the sequence (P29976 49-525) above
# Experimental: as §1, with “To” for “To generate recombinant DHS proteins the pET28a vectors carrying the A. thaliana DHS1 (AtDHS1), AtDHS2, or AtDHS3 WT sequence without the predicted plastid transit peptide (amino acid residues; 49-525, 34-507, and 52-527, respectively) were expressed in E. coli Rosetta-2 cells and purified using Ni-affinity chromatography, exactly as was conducted previously (9). To”
# as §4
compound,measurement,setting,value
Nc1ccccc1C(=O)[O-].[Na+] [Anthranilate],effect on DHS2 activity (effector screening),[1],slight reduction
same,effect on DHS1 activity (effector screening),[2],did not affect the activity
O=C(O)/C=C/c1ccc(O)c(O)c1 [Caffeate],pIC50,[3],4.19
same,inhibition of DHS1^B4 activity,[4],still strongly inhibited
same,pIC50,[4]; read-out: IC50 of effector molecule on DHS1^B4,4.19
same,pIC50,[5]; read-out: IC50 of effector molecule on DHS1^WT,3.97
"O=C(O)Cc1c[nH]c2ccccc12 [IAA, indole-3-acetate]",effect on DHS2 activity (effector screening),[1],inhibit
same,effect on DHS1 activity (effector screening),[2],inhibit
O=C(O)CCc1c[nH]c2ccccc12 [Indole-3-propionic acid],pIC50,[4],2.70
same,pIC50,[2],2.69
"N[C@@H](Cc1ccccc1)C(=O)O [Phe, phenylalanine]",effect on melting temperature (Tm) / binding of DHS2^A4,[6],no impact on the Tm
same,effect on melting temperature (Tm) of DHS2^WT,[7],no impact on the Tm
"N[C@@H](Cc1ccc(O)cc1)C(=O)O [Tyr, tyrosine]",binding (DSF),[8],still binds Tyr and Trp
same,inhibition of DHS2,[9],inhibit Arabidopsis DHS2
same,IC50 of effector molecule on DHS3^WT,[10],Not inhibited
same,IC50 of effector molecule on DHS3^H1,[11],Not inhibited
same,inhibition of DHS2^F1 activity,[12],not inhibited
same,IC50 of effector molecule on DHS1^B4,[4]; recombinant enzyme,Not inhibited
same,IC50 of effector molecule on DHS3^G1,[13],Not inhibited
same,IC50 of effector molecule on DHS1^WT,[5],Not inhibited
same,inhibition of DHS2^A11 activity,[14],not inhibited
OCCc1ccc(O)cc1 [Tyrosol],inhibition at 1000 µM,[1],~30%
N[C@@H](CC1(C(=O)O)C=CC(O)C=C1)C(=O)O (stereo partly drawn) [arogenate],inhibition of DHS2,[9],slightly inhibit DHS2
same,inhibition of DHS2^A4,[15],still inhibited
same,inhibition of DHS2^A4 activity,[16],still inhibited
c1ccc2[nH]ccc2c1 [indole],inhibition of DHS1^WT activity,[17],did not affect the activity of DHS1
O=C(O)C(=O)CC1(C(=O)O)C=CC(O)C=C1 (stereo not drawn) [prephenate],inhibition of DHS2,[9],slightly inhibit DHS2
same,inhibition of DHS2^A4,[15],still inhibited
same,inhibition of DHS2^A4 activity,[16],still inhibited
O=C(O)C1=C[C@@H](O)[C@@H](O)[C@H](O)C1 [shikimate],inhibition of DHS2,[9],slightly inhibit DHS2
same,inhibition of DHS2^A4,[15],still inhibited
same,inhibition of DHS2^A4 activity,[16],still inhibited
NCCc1c[nH]c2ccccc12 [tryptamine],effect on DHS2 activity (effector screening),[1],slight reduction
same,inhibition of DHS1^WT activity,[17],did not affect the activity of DHS1
same,effect on DHS1 activity (effector screening),[2],did not affect the activity
NCCc1ccc(O)cc1 [tyramine],inhibition at 1000 µM,[1],~30%

# From patent US20250043299A1, “POINT MUTATIONS THAT BOOST AROMATIC AMINO ACID PRODUCTION AND CO2 ASSIMILATION IN PLANTS” (Wisconsin Alumni Research Foundation, priority 2021, published 2025)
